These results are taken from publication PMC10889512, “Pyrimidine Schiff Bases: Synthesis, Structural Characterization and Recent Studies on Biological Activities” (International Journal of Molecular Sciences, 2024).

One data set concerns AGS cell line. The arrangement: method as in Suttie et al. 87. Particulars: ref Suttie et al. 87; cited from earlier work.
Another data set concerns A172 cell line. The arrangement: method as in PMID 30405885. Particulars: A172, 72 h, 200 µM; cited from earlier work.
The next data set relates to S. aureus 43300. The data set is described as follows: Antimicrobial activity assay, microdilution. Particulars: concentration range from 0.5 µg/mL to 256 µg/mL. It counts as cell-based, Staphylococcus aureus. The protocol:
(§1) In vitro antimicrobial and antifungal activity was screened using microdilution and modified Richard’s medium. The assay was performed for compounds 4a, 4b, 4c, and 4d with seven reference microbial strains from ATTC (E. coli 25922, S. aureus 43300, K. pneumoniae 700603, A. baumannii 19606, P. aeruginosa 27853, E. faecalis 29212, and C. albicans 10231).
(§2) Seven reference strains from the ATCC collection (Escherichia coli 25922, Staphylococcus aureus 43300, Klebsiella pneumoniae 13883, Acinetobacter baumannii 19606, Pseudomonas aeruginosa 27853, Enterococcus faecalis 29212, and Candida albicans 10231) were used. The assay was performed according to a modified version of Richard et al.’s protocol and ISO standards 20776-1:2019 and 16256:2021 [78, 79]. Microdilution with spectrophotometric measurement was used to calculate MIC50 (minimal inhibitory concentration which decreased the microorganisms’ viability to 50%) values. Briefly, compounds were prepared 100× concentrated in DMSO, and during the whole experiment, they were diluted to 1× with TSB. Serial dilutions of tested compounds were made directly on plates at a concentration range of 0.5 to 256 µg/mL. Microorganisms were incubated for 24 h at 37 °C (bacteria) or 25 °C (yeast) on Petri dishes with TSA. The bacteria/yeast suspensions were prepared at a density 5 × 10^5 CFU/mL (for bacteria) or 0.5–2.5 × 10^5 CFU/mL (for yeast) with TSB. Also, appropriate controls were contained in the experiment: the positive control consisted of a specific strain in TSB, and the negative control was TSB alone. To ensure that used strains were not modified and were still responding to antibacterial/antifungal compounds established by EUCAST, additional tests were conducted with levofloxacin, gentamicin, and amphotericin B. Microplates were incubated on a shaker for 24 h at 37 ± 1 °C or 25 ± 1 °C for the bacteria and yeast strains, respectively. After the incubation, spectrophotometric measurement was performed at 580 nm. MIC50 was calculated by comparing the results obtained for experimental sets with positive controls. Next, 50 µL aliquots of 1% (m/v) TTC solution were added to each well. The plates were incubated on the shaker for 24 h at 37/25 °C. In living microbial cells, colourless TTC is converted into red formazan crystals, which allows for visual observation and MBC/MFC (minimal bactericidal/fungicidal concentration) value assessment.

A further data set relates to E. faecalis 29212. Nature of the data set: Antimicrobial activity assay, microdilution. It counts as cell-based, Enterococcus faecalis. Particulars: concentration range from 0.5 µg/mL to 256 µg/mL. The protocol: as §1, §2
The test system of a further data set is C. albicans 10231. The data set is described as follows: Antifungal activity assay, microdilution. It counts as cell-based, Candida albicans. Particulars: concentration range from 0.5 µg/mL to 256 µg/mL. Here is the method: as §1, §2
Background: Broth dilution looks for growth in wells or tubes with falling amounts of substance.

For the next data set, the system named is K. pneumoniae 700603. The data set is described as follows: Antimicrobial activity assay, microdilution. The class given is cell-based, Klebsiella pneumoniae. Particulars: concentration range from 0.5 µg/mL to 256 µg/mL. Here is the method:
as §1, §2

The next data set relates to E. coli 25922. The data set is described as follows: Antimicrobial activity assay, microdilution. Particulars: concentration range from 0.5 µg/mL to 256 µg/mL. It counts as cell-based, Escherichia coli. The protocol: as §1, §2
The test system of another data set is A. baumannii 19606. The data set is described as follows: Antimicrobial activity assay, microdilution. The class given is cell-based, Acinetobacter baumannii. Particulars: concentration range from 0.5 µg/mL to 256 µg/mL. The protocol: as §1, §2
Another data set concerns RPTEC cell line. Nature of the data set: Neutral red uptake assay on RPTEC cell line. Particulars: 100 µM, 72 h. It counts as cell-based. Here is the method: In order to evaluate the cytotoxic properties of the tested compounds (4a–d), a neutral red uptake (NR) assay was performed on the RPTEC cell line. Four concentrations were used: 10, 100, 250, and 500 µM of each compound. The compound 4a was rejected from further investigation on cancer cell lines due to its high cytotoxicity (53 and 67% at 100 and 250 µM, respectively). Furthermore, at a concentration of 500 µM, the compound 4a crystallized, which influenced the obtained results by attenuating cytotoxic activity. Cell lines were plated in 96-well plates at a density of 1 × 10^4 cells/well. After 24 h incubation, which allowed the cells to attach and start to proliferate, the culture media were replaced with 4a–d dissolved in the appropriate medium at concentrations of 1, 10, 50, 100, 150 and 200 µM. […] Negative (1% DMSO in medium) and positive (1 µM staurosporine) controls were also included. Plates were incubated at 37 °C for 24, 48, and 72 h before the neutral red uptake assay. […] A 100 µL quantity of destain solution consisting of 50% ethanol, 1% glacial acetic acid, and deionized water was added to each well. […] Absorption was measured at 540 nm excitation. The cells’ viability was calculated by comparing results from experimental sets with negative controls according to the formula: % viability=ODtest substance−ODblind/ODnegative control−ODblind×100

The next data set has as its system P. aeruginosa 27853. Nature of the data set: Antimicrobial activity assay, microdilution. The class given is cell-based, Pseudomonas aeruginosa. Particulars: concentration range from 0.5 µg/mL to 256 µg/mL. The protocol: as §1, §2
The next data set has as its system HeLa. The data set is described as follows: Neutral red uptake assay on HeLa. Particulars: Homo sapiens, 72 h treatment. It counts as cell-based. The protocol: (§3) Based on the results obtained for the RPTEC cell line, the following concentrations of 4b–d were chosen to be applied to neoplastic cell lines: 0.1, 1, 10, 25, 50, and 100 µM. A172, AGS, CaCo-2, HeLa, and HepG2 cancer cell lines were used to perform a neutral red uptake assay. The obtained results were compared with a negative control (cell lines incubated without tested compounds), and half-maximal inhibitory concentration (IC50) values were calculated. Cell lines were plated in 96-well plates at a density of 1 × 10^4 cells/well. After 24 h incubation, which allowed the cells to attach and start to proliferate, the culture media were replaced with 4a–d dissolved in the appropriate medium at concentrations of 1, 10, 50, 100, 150 and 200 µM. […] Negative (1% DMSO in medium) and positive (1 µM staurosporine) controls were also included. Plates were incubated at 37 °C for 24, 48, and 72 h before the neutral red uptake assay. The neutral red uptake assay was performed as described by Repetto et al.. Briefly, the medium from all wells was discarded, the attached cells were washed with 100 µL PBS, and then 100 µL of neutral red working solution in medium (40 µg/mL) was added to each well. The neutral red solution was incubated overnight in the same conditions as the cells and centrifuged before being added to the cells. The plates were incubated for at least 2 h at 37 °C, 5% CO2, in a humidified atmosphere. Next, the neutral red medium was removed, and the cells were washed with 100 µL PBS. A 100 µL quantity of destain solution consisting of 50% ethanol, 1% glacial acetic acid, and deionized water was added to each well. Plates were incubated for 30 min with constant shaking on a horizontal shaker at 37 °C. Absorption was measured at 540 nm excitation. The cells’ viability was calculated by comparing results from experimental sets with negative controls according to the formula: % viability=ODtest substance−ODblind/ODnegative control−ODblind×100

Another data set deals with HepG2. Nature of the data set: Neutral red uptake assay on HepG2. It counts as cell-based. Particulars: Homo sapiens; HepG2, 72 h treatment. The protocol:
as §3

The next data set concerns CaCo-2. Nature of the data set: Neutral red uptake assay on CaCo-2. The class given is cell-based. Particulars: Homo sapiens; CaCo-2, 72 h treatment. The protocol:
as §3

Data set [1] concerns A172. Nature of the data set: Neutral red uptake assay on A172. It counts as cell-based, human. Particulars: Homo sapiens, A 172, 72 h, A172, 72 h treatment. Here is the method: as §3
The subject of the next data set is AGS. Nature of the data set: Neutral red uptake assay on AGS. The class given is cell-based, human. Particulars: 72 h treatment. Here is the method: as §3
Data set [2] concerns A172. The arrangement: method as in PMID 33921108. Particulars: cited from earlier work.
Another data set has as its system Enterococcus faecalis. The arrangement: method as in PMID 33921108. Particulars: cited from earlier work.

A word on the melting point: it is the temperature, or range, at which the solid turns liquid. The term IC50 denotes the concentration that inhibits the measured activity by half. As a reminder, the MBC is the smallest concentration meeting the test's criterion for killing. Broadly, the MIC is the lowest concentration found to suppress growth.

In brackets after ≈: the same amount, converted by molar mass. Read-outs that look alike come from different tables or passages of the source.

Turning to `O=c1[nH]cc(F)c(=O)[nH]1` [5-fluorouracil], the LD50 in the data set on AGS cell line was 153.7 µM.

On to `Cn1nnc2c(C(N)=O)ncn2c1=O` [TMZ, temozolomide], for which the cell viability entry in the data set with A172 cell line is given as “below 70%”.

For the compound `Cc1nc(-c2ccccc2)nc(Nc2ccc(F)cc2)c1C=Nc1ccc(F)cc1` [compound 4a, N-(4-fluorophenyl)-5-{[(4-fluorophenyl)imino]methyl}-6-methyl-2-phenylpyrimidin-4-amine], the melting point amounted to 178 °C. In addition, the “MIC and MBC/MFC activity” value in the data set with S. aureus 43300 was “Neither MIC nor MBC/MFC activity was observed”. In addition, the “MIC and MBC/MFC activity” value in the data set on E. faecalis 29212 is reported as “Neither MIC nor MBC/MFC activity was observed”. The “MIC and MBC/MFC activity” value with C. albicans 10231 is “Neither MIC nor MBC/MFC activity was observed”. For the same compound, the “MIC and MBC/MFC activity” value against K. pneumoniae 700603 is given as “Neither MIC nor MBC/MFC activity was observed”. Moreover, the “MIC and MBC/MFC activity” value against E. coli 25922 was “Neither MIC nor MBC/MFC activity was observed”. Also, the “MIC and MBC/MFC activity” value in the data set on A. baumannii 19606 was “Neither MIC nor MBC/MFC activity was observed”. This compound also displayed a cytotoxicity in the data set with RPTEC cell line of 53%. Moreover, the “MIC and MBC/MFC activity” value in the data set with P. aeruginosa 27853 was “Neither MIC nor MBC/MFC activity was observed”.

The compound `COc1ccccc1N=Cc1c(C)nc(-c2ccccc2)nc1Nc1ccc(F)cc1` [compound 4c, N-(4-fluorophenyl)-6-methyl-2-phenyl-5-{[(2-methoxyphenyl)imino]methyl}pyrimidin-4-amine] came in with a melting point of 167 to 169 °C. The “MIC and MBC/MFC activity” value with S. aureus 43300 was “Neither MIC nor MBC/MFC activity was observed”. The compound further had an IC50 with HeLa of more than 100 µM. Also, the “MIC and MBC/MFC activity” value against E. faecalis 29212 is given as “Neither MIC nor MBC/MFC activity was observed”. This compound also came in with an IC50 in the data set with HepG2 of more than 100 µM. This compound registered an IC50 in the data set on CaCo-2 of more than 100 µM. Moreover, the “MIC and MBC/MFC activity” value against C. albicans 10231 is on record as “Neither MIC nor MBC/MFC activity was observed”. In the data set with K. pneumoniae 700603, the “MIC and MBC/MFC activity” value was “Neither MIC nor MBC/MFC activity was observed”. Moreover, in the data set with E. coli 25922, the “MIC and MBC/MFC activity” value is on record as “Neither MIC nor MBC/MFC activity was observed”. For the same compound, the “MIC and MBC/MFC activity” value against A. baumannii 19606 is recorded as “Neither MIC nor MBC/MFC activity was observed”. The compound also came in with a half-maximal inhibitory concentration (IC50) in the data set on A172 [1] of more than 100 µM. In the data set on P. aeruginosa 27853, the “MIC and MBC/MFC activity” value is on record as “Neither MIC nor MBC/MFC activity was observed”. Besides, the IC50 with AGS (Homo sapiens, 72 h) is more than 100 µM.

On to `Cc1nc(-c2ccccc2)nc(Nc2ccc(F)cc2)c1C=Nc1ccc(Cl)c(C(F)(F)F)c1` [compound 4d, 5-[{[4-chloro-3-(trifluoromethyl)phenyl]imino}methyl]-N-(4-fluorophenyl)-6-methyl-2-phenylpyrimidin-4-amine], for which the melting point was 210 °C. The “MIC and MBC/MFC activity” value against S. aureus 43300 was “Neither MIC nor MBC/MFC activity was observed”. This compound showed a concentration for half-maximal inhibition (IC50) in the data set with HeLa of more than 100 µM. Besides, the “MIC and MBC/MFC activity” value in the data set with E. faecalis 29212 was “Neither MIC nor MBC/MFC activity was observed”. Moreover, the IC50 in the data set on HepG2 was more than 100 µM. This compound showed an IC50 in the data set on CaCo-2 of more than 100 µM. The “MIC and MBC/MFC activity” value against C. albicans 10231 is on record as “Neither MIC nor MBC/MFC activity was observed”. In addition, the “MIC and MBC/MFC activity” value in the data set on K. pneumoniae 700603 is “Neither MIC nor MBC/MFC activity was observed”. The “MIC and MBC/MFC activity” value in the data set on E. coli 25922 is recorded as “Neither MIC nor MBC/MFC activity was observed”. Moreover, the “MIC and MBC/MFC activity” value against A. baumannii 19606 is on record as “Neither MIC nor MBC/MFC activity was observed”. The compound also yielded an IC50 with A172 [1] of more than 100 µM. Moreover, the “MIC and MBC/MFC activity” value against P. aeruginosa 27853 is “Neither MIC nor MBC/MFC activity was observed”. Further, the IC50 in the data set on AGS is more than 100 µM. In addition, the IC50 in the data set on AGS (Homo sapiens, 72 h) stood at 190 µM.

For `CCOc1ccc(N=Cc2c(C)nc(-c3ccccc3)nc2Nc2ccc(F)cc2)cc1` [compound III, 5-[(4-ethoxyphenyl)imino]methyl-N-(4-fluorophenyl)-6-methyl-2-phenylpyrimidin-4-amine], the half-maximal inhibitory concentration (IC50) with A172 [2] was 526 µM. In the data set on Enterococcus faecalis, the MBC is on record as 32 µg/mL (≈ 75 µM) and the MIC was 16 µg/mL (≈ 37.5 µM).

As to `COc1cccc2c1C(=O)c1c(O)c3c(c(O)c1C2=O)C[C@@](O)(C(=O)CO)C[C@@H]3O[C@H]1C[C@H](N)[C@@H](O)[C@H](C)O1` [epirubicin], the LD50 in the data set with AGS cell line was 0.23 µM.
